Data as given in the supplement of paper PMC13380429.

Legend:
Settings in all cases: 72 h
Calu-3 [1] = assay: relative viability EC50 (midpoint between 100% and the lowest measured viability); higher = less toxic
Vero E6 [2] = assay: as above
HepG2 [3] = assay: as above
U2OS [4] = assay: as above
Caco-2 [5] = assay: as above
Calu-3 [6] = assay: drug sensitivity score (DSS) for viability; higher = more toxic; extreme values may be limits of the assay
Vero E6 [7] = assay: as above
HepG2 [8] = assay: as above
U2OS [9] = assay: as above
Caco-2 [10] = assay: as above
Calu-3 [11] = assay: cell viability relative to DMSO; higher = less toxic
Vero E6 [12] = assay: as above
HepG2 [13] = assay: as above
U2OS [14] = assay: as above
Caco-2 [15] = assay: as above

Compound | relative viability EC50 (Calu-3 [1]) | relative viability EC50 (Vero E6 [2]) | relative viability EC50 (HepG2 [3]) | relative viability EC50 (U2OS [4]) | relative viability EC50 (Caco-2 [5]) | drug sensitivity score (Calu-3 [6]) | drug sensitivity score (Vero E6 [7]) | drug sensitivity score (HepG2 [8]) | drug sensitivity score (U2OS [9]) | drug sensitivity score (Caco-2 [10]) | cell viability (Calu-3 [11]; 1 nM) | cell viability (Calu-3 [11]; 10 nM) | cell viability (Calu-3 [11]; 100 nM) | cell viability (Calu-3 [11]; 1000 nM) | cell viability (Calu-3 [11]; 10000 nM) | cell viability (Vero E6 [12]; 1 nM) | cell viability (Vero E6 [12]; 10 nM) | cell viability (Vero E6 [12]; 100 nM) | cell viability (Vero E6 [12]; 1000 nM) | cell viability (Vero E6 [12]; 10000 nM) | cell viability (HepG2 [13]; 1 nM) | cell viability (HepG2 [13]; 10 nM) | cell viability (HepG2 [13]; 100 nM) | cell viability (HepG2 [13]; 1000 nM) | cell viability (HepG2 [13]; 10000 nM) | cell viability (U2OS [14]; 1 nM) | cell viability (U2OS [14]; 10 nM) | cell viability (U2OS [14]; 100 nM) | cell viability (U2OS [14]; 1000 nM) | cell viability (U2OS [14]; 10000 nM) | cell viability (Caco-2 [15]; 1 nM) | cell viability (Caco-2 [15]; 10 nM) | cell viability (Caco-2 [15]; 100 nM) | cell viability (Caco-2 [15]; 1000 nM) | cell viability (Caco-2 [15]; 10000 nM)
Cn1cc([S+](C)[O-])c(=O)c2ccc(F)cc21 (stereo not given) [flosequinan] | > 10 µM | > 10 µM | > 10 µM | > 10 µM | > 10 µM | 0 | 0 | 0.1 | 0 | 0 | 98.6% | 95.5% | 99.6% | 101% | 110% | 97.5% | 97.7% | 98.8% | 96.3% | 96.4% | 103% | 97.9% | 97% | 95.4% | 86.9% | 104% | 95.3% | 98.5% | 99% | 102% | 110% | 95.3% | 107% | 102% | 95.7%
Cc1cccc(CN2CCN(C(c3ccccc3)c3ccc(Cl)cc3)CC2)c1 (stereo not given) [meclizine] | > 10 µM | > 10 µM | > 10 µM | > 10 µM | > 10 µM | 0 | 0 | 0 | 0 | 0.2 | 92.7% | 88.4% | 95.7% | 94.1% | 87.6% | 107% | 105% | 103% | 102% | 97.7% | 102% | 108% | 106% | 92.3% | 90% | 96.5% | 98.6% | 93.6% | 101% | 91.6% | 91.9% | 101% | 97.1% | 99.5% | 85.8%
CCC[C@@H]1CC(=O)N([C@@H](CC)C(N)=O)C1 [Brivaracetam] | > 10 µM | > 10 µM | > 10 µM | > 10 µM | > 10 µM | 0 | 0 | 0 | 0 | 0 | 100% | 103% | 92.7% | 100% | 97.2% | 89.6% | 96.2% | 88.3% | 97.5% | 107% | 101% | 96.2% | 101% | 97.9% | 114% | 102% | 98% | 102% | 96.2% | 99.6% | 89.1% | 94.5% | 93.8% | 102% | 98.8%
COc1ccc2cc(OCC3(C(=O)O)CN(C(=O)c4ccc(F)cc4)C3)ccc2c1 | > 10 µM | > 10 µM | > 10 µM | > 10 µM | > 10 µM | 0 | 0 | 0 | 0 | 0 | 106% | 95.4% | 104% | 110% | 102% | 99.2% | 96.9% | 99.5% | 96.2% | 95% | 106% | 88.7% | 100% | 93% | 96.9% | 94.3% | 108% | 96.1% | 97.9% | 95.8% | 93.5% | 102% | 94.8% | 93.8% | 99%
Cc1ccc2c(-c3ccccc3)nc(=O)n(C(C)C)c2c1 [proquazone] | > 10 µM | > 10 µM | > 10 µM | > 10 µM | > 10 µM | 0 | 0 | 0 | 0 | 0 | 92.9% | 94.9% | 104% | 105% | 117% | 93.4% | 92.4% | 89.3% | 105% | 103% | 96.7% | 109% | 102% | 102% | 110% | 99.7% | 94.5% | 96.2% | 92.4% | 105% | 86.9% | 89.3% | 81.4% | 103% | 99.8%
O=C1NC(=O)C(c2ccccc2)(c2ccccc2)N1 [phenytoin] | > 10 µM | > 10 µM | > 10 µM | > 10 µM | > 10 µM | 0.3 | 0 | 0 | 0 | 0 | 102% | 96.1% | 97.8% | 93.5% | 84.9% | 96% | 103% | 100% | 98.4% | 100% | 108% | 94.8% | 99.5% | 95.8% | 101% | 97.7% | 104% | 96% | 101% | 98.9% | 97.9% | 95.9% | 88.6% | 101% | 99.3%
O=C(NCc1ccccc1)OCCO [buramate] | > 10 µM | > 10 µM | > 10 µM | > 10 µM | > 10 µM | 0 | 0 | 1 | 0 | 0 | 99.7% | 97.3% | 95.8% | 94.9% | 91.5% | 100% | 102% | 111% | 92% | 101% | 106% | 97.8% | 104% | 86.8% | 85.8% | 99.5% | 100% | 99.7% | 100% | 100% | 96.1% | 105% | 89.9% | 102% | 88.1%
